Results: patent US9476099B2 (TRUSTEES OF DARTMOUTH COLLEGE, priority 2012, dated 2016)

Columns and labels:
833K-CP cells [1] = assay: Cell-Titre Glo viable cell growth and survival, 3 day decitabine; format: cell-based; conditions: 2.5 nM, FIG. 1
Procedure: (§1) Indicated doses of decitabine were added fresh each day for three days to exponentially growing cultures. Viable cell growth and survival were measured. Data are normalized to no drug treatment. EC cells are NT2/D1, NT2D1/R1, 833K, 833KCP, and Tera-1. Data are the average of 3 experiments in biological duplicate except for MCF-7 cells, which were assayed twice. Error bars are standard deviation (S.D.).
(§2) Cell growth and viability of five EC cell lines (NT2/D1, NT2D1/R1, 833K, 833KCP, and Tera-1) were determined, including two cell lines that are cisplatin-resistant (NT2/D1-R1 and 833KCP). Three control somatic tumor cell lines were also tested (HCT116, MCF7 and U2OS). […] Viable cell growth and survival were measured using Cell-Titre Glo (Promega) assays. […] These higher values are similar to the values shown in FIG. 1 for somatic tumor cell lines (MCF7, U2OS and HCT116).
(§3) NT2/D1, NT2D1-R1, 833K, 833K-CP, Tera-1, U20S, and HCT116 cells were cultured in DMEM with 10% FBS supplemented with glutamine and antibiotics except for MCF7 cells that were cultured in F12-DMEM. The derivation of the NT2/D1-resistant NT2/D1-R1 cell line has been previously described (Curtin et al. 2001. Oncogene 20:2559-2569; Kerley-Hamilton et al. 2007. Biochim. Biophys. Acta 1769:209-219). Cells were treated with the indicated dosages of 5-azadeoxycytidine (5-aza-CdR) for 3 days. This drug was replenished each day. […]

833K cells = assay: as above; format: cell-based; conditions: Homo sapiens, 72 h, 3 day treatment, FIG. 1, read-out: IC50, growth inhibition
Procedure: as §1, §2, §3

[2] = system: RIN1, SOX15 and TLR4 promoter in NT2/D1 cells; assay: Promoter specific bisulfite pyrosequencing; format: cell-based; conditions: 10 nM, 3 days, FIG. 13
Description: The graph depicts an average of triplicate sample determinations. Error bars are standard deviation. **=p<0.005. SOX15 values represent the average methylation value across two CpG sites. RIN1 and TRL4 values represent the average methylation across three CpG sites.
However, methylation changes were less robust in the experiments in NT2/D1 cells. Only 12 genes were identified as having significant decreases in promoter methylation. […] These six genes included RIN1, SOX15, TLR4, GPER, TRIM54, and CD164L2.
Genomic DNA was isolated with the QIAMP DNA mini kit (Qiagen) and bisulfite converted with the EZ DNA methylation kit (Zymo Research). DNA was amplified with HOTSTARTAQ plus DNA polymerase (Qiagen). The LINE-1 pyrosequencing assay averages across four CpG sites and has been described previously (Kashiwagi et al. 2011. Nucleic Acids Res. 39:874-888). Pyrosequencing assays for RIN1, SOX15, and TLR4 were designed with PyroMark assay design software (Qiagen) to sequence across corresponding probes cg0599842, cg02515422 and cg13098960 on the HumanMethylation27 BeadChip.

[3] = system: EC cell lines (NT2/D1, NT2D1/R1, 833K, 833KCP, and Tera-1); assay: Cell-Titre Glo viable cell growth and survival, all EC cell lines; format: cell-based; conditions: 10 to 5000 nM added fresh each day for three days; FIG. 1
Procedure: as §1, §2, §3

NT2 cells = assay: Gene set enrichment analysis (GSEA) of microarray data (Table 6); format: cell-based, human
Procedure: Gene set enrichment analysis (GSEA) was performed.
Expression analysis was performed on the […] HumanHT-12 v3 or […] HumanHT-12 v4 bead chip arrays ([…]) and scanned on the BeadArray Reader ([…]) according to manufacturer's instructions.

[4] = system: non-seminiferous testicular cancer (germ cell testicular cancer); conditions: 75 mg/m^2, 3 infusions in one day, repeated once a week for 5 weeks; Clavel et al. 1992; cited from earlier work
833K-CP cells [5] = assay: Cisplatin sensitivity (cell viability) after low dose decitabine pretreatment; format: cell-based; conditions: 2.5 nM 3 days, 24 hour recovery, cisplatin 6 hours, viability 3 days later
Procedure: (§4) Cell viability was assayed 3 days later. For NT2D1-R1 cells, 10 nM decitabineR was employed. […] Data are the average of biological triplicates and representative of at least two experiments. Error bars are standard error of the mean (SEM).
(§5) Cell viability was assayed 3 days later. For NT2D1-R1 cells, 10 nM decitabineR was employed. […] Data are the average of biological triplicates and representative of at least two experiments. Error bars are SEM.
(§6) Five distinct lentiviral shRNAs for DNMT3B (sh84, sh85, sh86, sh87, and sh88) were used to knock down DNMT3B expression. Six potential alternatively spliced isoforms of DNMT3B exist; the most biologically relevant isoforms are variants 1, 2, 3 and 6 (Jones, P. A. and S. B. Baylin. 2007. Cell 128:683-692). […] Western blot analysis of NT2/D1 and NT2/D1-R1 cells was also performed with cells treated with DNMT3B shRNA ([…]) and employing DNMT3B antibody, H-230. The results confirmed the reduced expression of DNMT3B when the shRNA were employed. None of the DNMT3B-specific shRNAs affected levels of DNMT1 or DNMT3A (FIG. 2). […] However, knockdown of DNMT3B by itself had no apparent effect on the growth of NT2/D1 or NT2/D1-R1 cells. […] It had been previously reported that cisplatin causes a global p53-dominant transcriptional response in EC cells (Kerley-Hamilton et al. 2005. Oncogene 24:6090-6100). […]

NT2/D1-R1 cells = assay: as above; format: cell-based; conditions: 10 nM 3 days, 24 hour recovery, cisplatin 6 hours, viability 3 days later
Procedure: as §4, §5, §6

[6] = Gene Sets Depleted in NT2 Cells with 3-Day Decitabine Treatment (10 nM)
[7] = Gene Sets Enriched in NT2 Cells with 3-Day Decitabine Treatment (10 nM)

Nc1ncn([C@H]2C[C@H](O)[C@@H](CO)O2)c(=O)n1 [decitabine, 5-aza-deoxycytidine]
inhibition at 0.0025 µM (833K-CP cells [1]): 10% | IC50 (833K cells): 5 to 25 nM | promoter methylation of RIN1, SOX15 and TLR4 (bisulfite pyrosequencing) [2]: decreased promoter methylation | growth of all EC cell lines [3]: inhibited | NES, BENPORATH_ES_1 (NT2 cells; [6]): 2.6981 | NES, BENPORATH_ES_2 (NT2 cells; [6]): 2.3953 | NES, BHATTACHARYA_EMBRYONIC_STEM_CELL (NT2 cells; [6]): 2.2132 | NES, CONRAD_STEM_CELL (NT2 cells; [6]): 2.1627 | NES, MISSIAGLIA_REGULATED_BY_METHYLATION_DN (NT2 cells; [6]): 2.1720 | NES, MUELLER_PLURINET (NT2 cells; [6]): 2.2694 | NES, PAL_PRMT5_TARGETS_UP (NT2 cells; [6]): 2.2049 | NES, SCHLOSSER_MYC_TARGETS_AND_SERUM_RESPONSE_DN (NT2 cells; [6]): 2.2821 | NES, SCHLOSSER_MYC_TARGETS_REPRESSED_BY_SERUM (NT2 cells; [6]): 2.4043 | NES, SCHUHMACHER_MYC_TARGETS_UP (NT2 cells; [6]): 2.5662 | NES, VSE2F_02 (NT2 cells; [6]): 2.2708 | NES, WONG_EMBRYONIC_STEM_CELL_CORE (NT2 cells; [6]): 2.4279 | NES, CONCANNON_APOPTOSIS_BY_EPOXOMICIN_UP (NT2 cells; [7]): −2.2139 | NES, HAMAI_APOPTOSIS_VIA_TRAIL_DN (NT2 cells; [7]): −1.9615 | NES, HELLER_SILENCED_BY_METHYLATION_UP (NT2 cells; [7]): −1.9604 | NES, KERLEY_RESPONSE_TO_CISPLATIN_UP (NT2 cells; [7]): −2.4408 | NES, KIM_RESPONSE_TO_TSA_AND_DECITABINE_UP (NT2 cells; [7]): −1.9665 | NES, KYNG_DNA_DAMAGE_BY_UV (NT2 cells; [7]): −2.0319 | NES, MISSIAGLIA_REGULATED_BY_METHYLATION_UP (NT2 cells; [7]): −2.1687 | NES, MUELLER_METHYLATED_IN_GLIOBLASTOMA (NT2 cells; [7]): −2.0961 | NES, RUGO_UV_RESPONSE (NT2 cells; [7]): −1.9676 | activity in Phase II clinical trial patients [4]: no activity | effect of low dose decitabine pretreatment on cisplatin-induced growth suppression and toxicity (833K-CP cells [5]): restored cisplatin-induced growth suppression and toxicity | effect of low dose decitabine pretreatment on cisplatin-induced growth suppression and toxicity (NT2/D1-R1 cells): restored cisplatin-induced growth suppression and toxicity
